In US3940413A, “1-Ethyl-imidazoles” (Bayer Aktiengesellschaft, priority 1972, dated 1976):
≈ marks a conversion by molar mass, not a printed value.

Key:
Experiment in all cases: antimycotic action spectrum in vitro, series dilution test
Format in all cases: cell-based
Aspergillus niger = settings: in nutrient medium, 28°C, 24 to 96 hours; for MIC: Aspergillus niger, read-out: Minimum inhibitory concentration, Aspergillus niger
Description: (§1) Determination of the anti-mycotic action spectrum in vitro by the series dilution test.
(§2) The nutrient substrates used were, for dermatophytes and moulds, Sabourauds' test medium, and, for blastomyces and biphase fungi, meat broth-glucose bouillon.
(§3) The incubation temperature was 28°C and the incubation time was 24 to 96 hours.

[1] = system: Trichophyton mentagrophytes; settings: in nutrient medium, Sabourauds' test medium, 28°C, 24 to 96 hours; for MIC: Trichophyton mentagrophytes, read-out: Minimum inhibitory concentration, Trichophyton mentagrophytes
Description: as §1, §2, §3

Candida albicans = settings: in nutrient medium, 28°C, 24 to 96 hours; for MIC: Candida albicans, read-out: Minimum inhibitory concentration, Candida albicans
Description: as §1, §2, §3

Penicillium commune = settings: in nutrient medium, 28°C, 24 to 96 hours; for MIC: Penicillium commune, read-out: Minimum inhibitory concentration, Penicillium commune
Description: as §1, §2, §3

| MIC (Aspergillus niger) | MIC [1] | MIC (Candida albicans) | MIC (Penicillium commune) | SMILES | Minimum inhibitory concentration, Aspergillus niger (Aspergillus niger) | Minimum inhibitory concentration, Trichophyton mentagrophytes [1] | Minimum inhibitory concentration, Candida albicans (Candida albicans) | Minimum inhibitory concentration, Penicillium commune (Penicillium commune) |
| --- | --- | --- | --- | --- | --- | --- | --- | --- |
| 4 µg/mL (≈ 13 µM) | 4 µg/mL (≈ 13 µM) | 4 µg/mL (≈ 13 µM) | 16 µg/mL (≈ 52.2 µM) | CC(C)(C)C(=O)C(Cn1ccnc1)Oc1cccc(Cl)c1 (centres unmarked) [Example 9, 2-(3-chlorophenoxy)-1-imidazolyl-(1)-4,4-dimethyl-pentan-3-one] |  |  |  |  |
| 8 µg/mL (≈ 26.1 µM) | 4 µg/mL (≈ 13 µM) | 4 µg/mL (≈ 13 µM) | 32 µg/mL (≈ 104 µM) | CC(C)(C)C(=O)C(Cn1ccnc1)Oc1ccc(Cl)cc1 (centres unmarked) [Example 1, 2-(4-chlorophenoxy)-1-imidazolyl-(1)-4,4-dimethyl-pentan-3-one] |  |  |  |  |
| 4 µg/mL (≈ 11.7 µM) | < 1 µg/mL | 4 µg/mL (≈ 11.7 µM) | 16 µg/mL (≈ 46.9 µM) | CC(C)(C)C(=O)C(Cn1ccnc1)Oc1ccc(Cl)cc1Cl (centres unmarked) [Example 5, 2-(2,4-dichlorophenoxy)-1-imidazolyl-(1)-4,4-dimethyl-pentan-3-one] |  |  |  |  |
| 8 µg/mL (≈ 24.9 µM) | < 1 µg/mL | 4 µg/mL (≈ 12.5 µM) | 8 µg/mL (≈ 24.9 µM) | Cc1cc(Cl)ccc1OC(Cn1ccnc1)C(=O)C(C)(C)C (centres unmarked) [Example 12] |  |  |  |  |

Second part, the molecule before the results:

| SMILES | MIC (Aspergillus niger) | MIC [1] | MIC (Candida albicans) | MIC (Penicillium commune) | Minimum inhibitory concentration, Aspergillus niger (Aspergillus niger) | Minimum inhibitory concentration, Trichophyton mentagrophytes [1] | Minimum inhibitory concentration, Candida albicans (Candida albicans) | Minimum inhibitory concentration, Penicillium commune (Penicillium commune) |
| --- | --- | --- | --- | --- | --- | --- | --- | --- |
| CC(C)(C)C(=O)C(Cn1ccnc1)Oc1ccccc1-c1ccccc1 (centres unmarked) [Example 13, 2-(2-phenylphenoxy)-1-imidazolyl-(1)-4,4-dimethyl-pentan-3-one] | 8 µg/mL (≈ 23 µM) | 8 µg/mL (≈ 23 µM) | 4 µg/mL (≈ 11.5 µM) | 16 µg/mL (≈ 45.9 µM) |  |  |  |  |
| CC(C)(C)C(=O)C(Cn1ccnc1)Oc1ccc(-c2ccccc2)cc1 (centres unmarked) [Example 14, 2-(4-phenylphenoxy)-1-imidazolyl-(1)-4,4-dimethyl-pentan-3-one] | 8 µg/mL (≈ 23 µM) | < 1 µg/mL | 4 µg/mL (≈ 11.5 µM) | 8 µg/mL (≈ 23 µM) |  |  |  |  |
| CC(C)(C)C(=O)C(Cn1ccnc1)Oc1ccc(F)cc1 (centres unmarked) [Example 7, 2-(4-fluorophenoxy)-1-imidazolyl-(1)-4,4-dimethyl-pentan-3-one] | 4 µg/mL (≈ 13.8 µM) | 8 µg/mL (≈ 27.6 µM) | 4 µg/mL (≈ 13.8 µM) | 32 µg/mL (≈ 110 µM) |  |  |  |  |
| CC(C)(C)C(=O)C(Cn1ccnc1)Oc1ccc(Br)cc1 (centres unmarked) [Example 6, 2-(4-bromophenoxy)-1-imidazolyl-(1)-4,4-dimethyl-pentan-3-one] | 4 µg/mL (≈ 11.4 µM) | 8 µg/mL (≈ 22.8 µM) | 4 µg/mL (≈ 11.4 µM) | 16 µg/mL (≈ 45.6 µM) |  |  |  |  |
| CC(C)(C)C(=O)C(Cn1ccnc1)Oc1ccc(Cl)cc1 (centres unmarked) [Example 4, 2-(4-chlorophenoxy)-1-imidazolyl-(1)-4,4-dimethyl-pentan-3-one] |  |  |  |  | 4 µg/mL (≈ 13 µM) | 4 µg/mL (≈ 13 µM) | 4 µg/mL (≈ 13 µM) | 32 µg/mL (≈ 104 µM) |
| CC(C)(C)C(=O)C(Cn1ccnc1)Oc1ccccc1Cl (centres unmarked) [Example 8, 2-(2-chlorophenoxy)-1-imidazolyl-(1)-4,4-dimethyl-pentan-3-one] | 4 µg/mL (≈ 13 µM) | 8 µg/mL (≈ 26.1 µM) | 4 µg/mL (≈ 13 µM) | 16 µg/mL (≈ 52.2 µM) |  |  |  |  |
| CC(C)(C)C(=O)C(Cn1ccnc1)Oc1cc(Cl)c(Cl)cc1Cl (centres unmarked) [Example 10, 2-(2,4,5-trichlorophenoxy)-1-imidazolyl-(1)-4,4-dimethyl-pentan-3-one] | 4 µg/mL (≈ 10.6 µM) | 4 µg/mL (≈ 10.6 µM) | 4 µg/mL (≈ 10.6 µM) | 16 µg/mL (≈ 42.6 µM) |  |  |  |  |
